In patent publication EP3766544A1 (Centre Hospitalier Regional Universitaire de Lille, priority 2019, dated 2021):
Each block holds one compound with its values, some of them ahead of it.

Assays:
hPD-L1-eGFP = target: T1, hPD-L1-eGFP (Homo sapiens, UniProt Q9NZQ7); assay: Microscale thermophoresis (MST) PD-L1 binding assay; details: CHO-K1 cell lysate, hPD-L1-eGFP 35 nM, PBS-T buffer (0.05% Tween 20)
T1 construct: expressed in transfected cells; host or cells: CHO-K1 (cell lysate used)
Text: The quantity of cells for this protocol can vary from 10 to 40 million. […] Different types of additives such as Tween 20, various MgCl2 concentrations, BSA have been tested to avoid sample aggregation and different types of capillaries have been investigated to reduce the adsorption within capillaries. Various buffers have also been tested and are listed in the related section. The fluorescence measurement is made using a small quantity of cell lysate within a capillary chosen among different available capillaries: standard, premium, hydrophilic or hydrophilic. The highest concentration of ligand must be at least 20 times higher than the expected dissociation constant of the interaction under study. However, the lowest concentration of ligand must be lower than the concentration of the fluorescent protein. An online tool created by NanoTemper® can be used and allows determining the range of ideal concentration. The concentration of the fluorescent protein can be determined using a GFP dosage kit (Abnova KA0911) or a calibration curve.
CHO-K1 cells were transfected with the Cell Line Nucleofector® Kit T, Program U-023 and the pcDNA 3.1 hygro plasmid expressing PD-1-eGFP. 2 µg of plasmid was transfected in one million CHO-K1 cells suspended in 100 µL Nucleofector solution. Cells were analyzed 48 hours post Nucleofection® by flow cytometry. Cells are put under the appropriate selective pressure which will only allow growth of cells containing the DNA insert. After three weeks of selective pressure, the multiparametric analysis of transfected CHO-K1 cells over-expressing mPD-1-eGFP allows defining sub-populations which can be separated from the global population. The population of cells strongly expressing eGFP is analyzed by flow cytometry and kept for MicroScale Thermophoresis analysis. The exact same protocol from transfection to cytometry analysis is lead on CHO-K1 cells expressing the hPD-L1-eGFP protein.
MST was used to establish the binding affinity between PD-L1-eGFP and Compounds. Cell lysate was diluted in PBS-T buffer (0.05% Tween 20) to a final concentration at which the fluorescent signals of the GFP proteins were similar and above the typical detection limit of the Monolith NT.115 instrument (NanoTemper Technologies). […] For the binding between hPD-L1-eGFP with compounds, several dilutions were made between 1mM to 1 nM to cover a wide concentration range. Ten microliters of cell lysate are added to 10 µL of each ligand solution. Nivolumab was taken as reference.

[1] = target: T2, interaction between PD-1 and PD-L1 (Homo sapiens, UniProt Q9NZQ7); assay: FRET assay (PD-1-YFP / SHP-2-CFP in CHO-K1 cells, activation with PD-L1); assay type: cell-based; details: co-transfected PD-1-SHP2 CHO-K1 cells, after addition of PD-L1 (10 µM)
T2 construct: expressed in transfected cells; host or cells: CHO-K1 co-transfected with PD-1-YFP and SHP-2-CFP
Text: Energy transfer between fluorescent molecules (FRET) is a technique that allows visualizing interactions between 2 fluorescent molecules. A fluorescent molecule, called "donor", will transfer its energy, once excited, to another fluorescent molecule called "acceptor". The fluorescence of the donor decreases while the acceptor's one increases (see Figure 1).
A model was developed using CHO-K1 cells involving overexpression of proteins of interest. It involves the expression of a PD-1-YFP fluorescent protein and a second fluorescent protein SHP-2-CFP (phosphatase recruited during the interaction between PD-1 and PD-L1).
A Spectramax i3 is configured according to the selected fluorochromes with their excitation and emission spectra. Endpoint reading is performed, at the center of the well; the reading time is 2 minutes for a 96-well plate.
For this test, a 96-well flat-bottomed white plate is required. All mixes introduced into the plate are made of triplicate. The negative control is provided by the CHO transfected by the void plasmid, the positive control is provided by CHO transfected with a plasmid containing the YFP-CFP fusion protein making it possible to mimic the FRET phenomenon. […] It is also necessary to remove the background noise, that is to say the FRET without activation with PD-L1. […] Nivolumab was taken as positive control of interaction's inhibitions.

[2] = In vitro spread test (CFSE CellTrace cell proliferation, flow cytometry); assay type: cell-based; details: IC50 of proliferation, flow cytometry D0 to D3
Text: The CellTrace™ Cell Proliferation Kits provide versatile and well-retained cell tracing reagents in a convenient and easyto-use form. Each kit contains a CellTrace™ reagent in single-use vials to permit small scale experiments without preparing excess quantities of stock solution. The CellTrace™ reagents readily diffuse into cells and bind covalently to intracellular amines, resulting in stable, well-retained fluorescent staining that can be fixed with aldehyde fixatives. Excess unconjugated reagent passively diffuses to the extracellular medium, where it can be quenched with complete media and washed away. The kit is supplied by ThermoFisher Scientific.
• 1. Number of days on which the manipulation is done: 3 (from D0 to D3: 4 passages in cytometry) • 2. Volume of cell suspension needed: 2.5ml (0.5ml / day) • 3. Number of cells needed: 2.5mlx0.5M / ml = 1.25M per cell line. • 4. Number the cells and check their viability. • 5. Prepare the desired number of cells. • 6. Centrifuge, resuspend at a 1M/mL concentration in PBS (the probe binds to the proteins of the medium) • 7. Add 0.5µM of CellTrace (dilute 1/10 of the stock solution, add 1 / 1000th in the PBS-cell mix: take 1µl of probe at the main concentration, add 9µL of PBS) • 8. Incubate for 20 minutes at 37 ° C in the dark. • 9. Add 5 volumes of medium to capture the excess of probe (1.2x5 = 6ml) • 10. Incubate for 5 minutes at 37 ° C. • 11. Centrifuge, resuspend the cells at the desired concentration of 0.5M / ml in preheated medium. Plate 24 wells. • 12. Establish the J0 at least 5h after marking. • 13. Flow cytometry is then performed to evaluate cell division and to determine an IC50 of proliferation using Graphpad.

T1 sequence (Q9NZQ7 19-290): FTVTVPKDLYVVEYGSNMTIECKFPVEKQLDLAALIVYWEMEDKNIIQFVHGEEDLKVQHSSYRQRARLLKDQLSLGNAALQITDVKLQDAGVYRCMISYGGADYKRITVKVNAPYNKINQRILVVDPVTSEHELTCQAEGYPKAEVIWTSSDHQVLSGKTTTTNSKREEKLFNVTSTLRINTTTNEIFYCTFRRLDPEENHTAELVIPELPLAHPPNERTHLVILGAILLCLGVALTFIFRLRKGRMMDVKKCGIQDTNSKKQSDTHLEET
T2 sequence (Q9NZQ7 19-238 limits assumed): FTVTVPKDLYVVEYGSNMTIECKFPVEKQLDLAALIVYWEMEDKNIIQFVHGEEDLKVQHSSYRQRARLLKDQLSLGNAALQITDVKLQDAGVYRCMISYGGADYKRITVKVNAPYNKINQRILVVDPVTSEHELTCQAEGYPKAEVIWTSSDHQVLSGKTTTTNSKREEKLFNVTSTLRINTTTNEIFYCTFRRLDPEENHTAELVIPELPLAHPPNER

SMILES: O=C1CC(c2cccc(C(F)(F)F)c2)=NN1c1ccccn1 [ALIPD58, 1-(2-pyridyl)-3-[3-(trifluoromethyl)phenyl]-4,5-dihydro-1H-5-pyrazolone]
Kd (hPD-L1-eGFP): 1200 nM | IC50 [1]: 1100 nM

SMILES: O=C1CC(c2ccc(Cl)cc2)=NN1c1ccccn1 [ALIPD59, 3-(4-chlorophenyl)-1-(2-pyridyl)-4,5-dihydro-1H-5-pyrazolone]
Kd (hPD-L1-eGFP): 27000 ± 5000 nM | IC50 [1]: 33000 ± 7000 nM

SMILES: COc1ccccc1C1=NN(c2ccccn2)C(=O)C1 [ALIPD60, 3-(2-methoxyphenyl)-1-(2-pyridyl)-4,5-dihydro-1H-5-pyrazolone]
Kd (hPD-L1-eGFP): 23 nM | IC50 [1]: 7 nM

SMILES: COc1ccc(C2=NN(c3cc(Cl)ccc3Cl)C(=O)C2)cc1
Kd (hPD-L1-eGFP): 8000 ± 2000 nM | IC50 [1]: 12000 ± 3000 nM

SMILES: COc1ccc(C2=NN(c3ccccn3)C(=O)C2)cc1 [ALIPD19, 3-(4-Methoxyphenyl) -1-(pyridin-2-yl)-4,5-dihydro-1H-5-pyrazolone]
Kd (hPD-L1-eGFP): 83 nM | IC50 [1]: 17 nM | IC50 [2]: 75 nM

SMILES: COc1ccc(C2=NN(c3ccc(OC)cc3)C(=O)C2)cc1 [ALIPD24, 1-(4-methoxyphenyl)-3-(4-methoxyphenyl)-4,5-dihydro-1H-5-pyrazolone]
Kd (hPD-L1-eGFP): 375 ± 43 nM | IC50 [1]: 230 ± 35 nM | In vitro spread test [2]: No effect

SMILES: O=C1CC(C2CCCCCC2)=NN1c1ccc(Cl)cc1Cl
Kd (hPD-L1-eGFP): 80000 ± 12000 nM | IC50 [1]: 67000 ± 9000 nM

SMILES: O=C1CC(c2ccccc2)=NN1c1ccc(Cl)cc1Cl
Kd (hPD-L1-eGFP): 14000 ± 3000 nM | IC50 [1]: 9000 ± 5000 nM

More lines, main results first:

Kd (hPD-L1-eGFP): 890 ± 75 nM | IC50 [1]: 785 ± 87 nM
SMILES: O=C1CC(C23CC4CC(CC(C4)C2)C3)=NN1c1cc(Cl)cc(Cl)c1 [ALIPD28, 3-(Adamantan-1-yl)-1-(3,5-dichlorophenyl)-4,5-dihydro-1H-5-pyrazolone]

Kd (hPD-L1-eGFP): 72000 ± 17000 nM | IC50 [1]: 43000 ± 6000 nM
SMILES: O=C1CC(c2ccc([N+](=O)[O-])cc2)=NN1c1ccc(Cl)cc1Cl [ALIPD33, 1-(2,4-Dichlorophenyl)-3-(4-nitrophenyl)-4,5-dihydro-1H-5-pyrazolone]

Kd (hPD-L1-eGFP): 68000 ± 7000 nM | IC50 [1]: 51000 ± 3000 nM
SMILES: COc1ccc(C2=NN(c3ccc(Cl)cc3Cl)C(=O)C2)cc1 [ALIPX05, 1-(2,4-Dichlorophenyl)-3-(4-methoxyphenyl)-4,5-dihydro-1H-5-pyrazolone]

Kd (hPD-L1-eGFP): 212 ± 23 nM | IC50 [1]: 196 ± 17 nM
SMILES: COc1ccc(C2=NN(c3ccc(Cl)cc3Cl)C(=O)C2)cc1OC [ALIPD52, 1-(2,4-Dichlorophenyl)-3-(3,4-dimethoxyphenyl)-4,5-dihydro-1H-5-pyrazolone]

Kd (hPD-L1-eGFP): 110 ± 17 nM | IC50 [1]: 98 ± 12 nM
SMILES: O=C1CC(c2ccc(Cl)cc2Cl)=NN1c1ccccn1 [ALIPD26, 3-(2,4-Dichlorophenyl)-1-(pyridin-2-yl)-4,5-dihydro-1H-5-pyrazolone]

Kd (hPD-L1-eGFP): 18000 ± 3000 nM | IC50 [1]: 15000 ± 5000 nM
SMILES: COc1ccc(C2=NN(c3cc(Cl)cc(Cl)c3)C(=O)C2)cc1 [ALIPX02, 1-(3,5-Dichlorophenyl)-3-(4-methoxyphenyl)-4,5-dihydro-1H-5-pyrazolone]

Kd (hPD-L1-eGFP): 340 ± 27 nM | IC50 [1]: 4 ± 2 nM
SMILES: O=C1CC(C23CC4CC(CC(C4)C2)C3)=NN1c1ccccn1 [ALIPX57, 3-(Adamantan-1-yl)-1-(pyridin-2-yl)-4,5-dihydro-1H-5-pyrazolone]
IC50 [2]: 192 nM
